Measured values published in patent US20260007729A1, “IM[…] VIRAL […](S)” (IMMUNEO Therapeutics GmbH, priority 2022, published 2026).

Key:
[1] = test system: PBMCs from a healthy adult human; experiment: IFNγ ELISpot analysis of antigen peptides ex vivo; type: cell-based; details: for Activation*10 (IFNγ activity, activation values times 10): calculated by formula, neg 36.0; for Cells/100,000 cells (positive counts per 100,000 cells): cells pre-stimulated with peptide pool, 267,000 cells per well, duplicates; for Effectiveness of immunization (product of number of activated cells and activation): FIG. 11, descending order
[2] = test system: T cell CD4 and CD8 activity; experiment: Antigen response in mice, second trial (immunization, intracellular cytokine staining); type: in vivo, wild-type mice (C57BL/6); details: mice immunized with Pep2 C, restimulation with peptides (FIG. 9)
Protocol: 3 Groups of wild-type mice (C57BL/6) consisting of 5 mice (group 2,3) and 3 mice for the negative control (group 1) were administered different vaccine candidates (as following) for evaluation.
The Groups were administered the following compositions: • a) Group 1 (no vac.): no vaccine • b) Group 2 (Pep2 C): peptide mix (60 μg per single peptide, 12 peptides selected from SEQ ID NOs: 43, 44, 46, 47, 50-58) with c-di-AMP (10 mg/dose) adjuvant • c) Group 3 (mRNA): Comirnaty mRNA vaccine (5 μg/dose)
The antigen peptide formulations in accordance with the present invention were administered subcutaneous (SC) three times in two-week intervals (see FIG. 7), the mRNA vaccine was administered intramuscular (IM) two times in a four-week interval (Group 3). After five weeks the immune response was determined, T cell CD8 activity was examined by cytokines secreted in response to stimulation with the peptide antigens were determined by intracellular cytokine staining (ICS) with Intracellular cytokine staining with IFNγ and TNFγ. Specific antibodies.

[3] = test system: peripheral blood mononuclear cells (PBMCs) from a human donor; experiment: Intracellular Cytokine Staining (ICS) of antigen polypeptides; type: cell-based
Protocol: An Intracellular Cytokine Staining (ICS) assay to assess the T-cell responses induced by an antigen polypeptide in the spirit of the current invention was carried out following this experimental procedure. The experimental procedure involved several sequential steps to prepare and analyze freshly harvested peripheral blood mononuclear cells (PBMCs) from a human donor.
PBMCs were cultured in RPMI-1640 medium supplemented with 10% fetal bovine serum, penicillin-streptomycin, and L-glutamine at 37° C. with 5% CO2. After culture, the cells were divided into different experimental groups. The cells were then stimulated with the antigen peptide vaccine or a control peptide, along with appropriate cytokines and co-stimulatory molecules to facilitate T cell activation. The antigen peptide was designed to effectively stimulate both CD4 and CD8 T-cell responses.
To inhibit cytokine secretion and promote intracellular cytokine accumulation, brefeldin A was added to the stimulated cells at a concentration of 10 μg/mL, and the cells were incubated overnight. Subsequently, the cells were harvested, and staining was performed. Fluorescently labeled antibodies, including AlexaFluor 488-conjugated anti-IFNγ and APC-H7-conjugated anti-CD4, as well as Pacific Orange-conjugated anti-CD8 and a cell surface marker were added to the cells and incubated.
To facilitate antibody access to intracellular molecules, the cells were fixed and permeabilized using a fixation solution and permeabilization buffer. Intracellular cytokine staining was carried out by adding fluorescently labeled antibodies against IFNγ or other cytokines of interest. Following staining, flow cytometry analysis was performed by gating on CD4 and CD8 T cells to determine the percentage of cytokine-producing cells.
The obtained data were analyzed to compare the percentage of cytokine-producing CD4 and CD8 T cells stimulated with the antigen polypeptides to that of unstimulated CD4 and CD8 T cells or T cells stimulated with a control peptide. […]

Row | Sequence | Activation*10 (IFNγ activity, activation values times 10) [1] | Cells/100,000 cells (positive counts per 100,000 cells) ([1]; neg 25.8) | Effectiveness of immunization (product of number of activated cells and activation) [1] | also measured
1 | AATKMSECVLGQSKRVD [Pep-9] | 38.0 | 22.1 Cells/100,000 cells |  | 
2 | AISSVLNDILSRLDKVE [Pep-10] | 34.8 | 17.2 Cells/100,000 cells |  | 
3 | DGYFKIYSKHTPINLV [Pep-17] | 99.6 | 249.1 Cells/100,000 cells | most effective | Cells/100,000 cells (positive counts per 100,000 cells) ([1]; neg 25.8, listed as Peptide 17): especially high counts
4 | GDCLGDIAARDLIC [Pep-14] |  | 262.2 Cells/100,000 cells | most effective | Cells/100,000 cells (positive counts per 100,000 cells) ([1]; neg 25.8, listed as Peptide 14): especially high counts
5 | GKEDLKFPRGQGVPINTNSS [Pep-18] | 10.1 | 24.3 Cells/100,000 cells |  | 
6 | IRAAEIRASANLAATKM [Pep-21] |  | 50.9 Cells/100,000 cells | most effective | 
7 | KDLSPRWYFYYLGTG [Pep-20] | 93.3 | 31.5 Cells/100,000 cells |  | 
8 | LGKYEQYIKWPWYIWLGFIAG [Pep-15] | 36.5 | 16.9 Cells/100,000 cells |  | 
9 | MAYRFNGIGVTQNVLYE [Pep-7] |  | 41.9 Cells/100,000 cells | most effective | Single peptide-specific CD8 T cell reaction [2]: caused a CD8 T cell reaction; CD8 / CD8+ response in ICS ([3]; FIG. 5, FIG. 9, groups of Table E7-1): strong CD8+ response; CD4 response in ICS ([3]; FIG. 8, groups of Table E7-1): some CD4 response; Individual activities in the ICS study ([3]; single peptides): high individual activities
10 | RQGTDYKHWPQIAQF (synthetic peptide used as antigen comprising at least one HLA antigen peptide) [Pep-19] | 36.6 | 21.3 Cells/100,000 cells |  | 
11 | TFEYVSQPFLMDLEGKQ [Pep-13] | 53.1 | 322.8 Cells/100,000 cells | most effective | Cells/100,000 cells (positive counts per 100,000 cells) ([1]; neg 25.8, listed as Peptide 13): especially high counts
